Measurements from US20210337789A1, “Derivatives of m-Guaiacol, Their Preparation and Their Uses” (Universite de Caen Normandie, priority 2018, published 2021).

Columns and labels:
Klebsiella pneumoniae = experiment: Bacterial growth screening on wild-type phenotype strain, K. pneumoniae; assay type: cell-based
Experimental: The bacterial growth is evaluated by measuring the optical density (DO) at 600 nm using NanoDrop.
This ratio permits a classification of the molecules in 4 effect levels: • 0=no effect observed; • 1=effect observed only when the molecule is tested pure; • 2=effect observed at several concentrations, but which gradually decreases the dilutions; • 3=strong effect observed at each concentration of molecule tested.
A screening of molecules of the invention on several wild-type phenotype strains has been carried out.
The strains initially selected are: • Gram+: Streptococcus equi subsp zooepidemicus and Staphylococcus aureus • Gram−: Escherichia coli, Klebsiella pneumoniae and Stenotrophomonas maltophila.

androgenic receptors = molecular target: T1, androgenic receptors (Homo sapiens, UniProt P10275); experiment: Affinity test for androgenic receptors, inhibition of bonding of radioactive marked testosterone; assay type: binding; conditions: 10^−5 M, greater than 50% considered significant, read-out: % of inhibition (average of the two measurements)
T1 sequence (P10275 1-920): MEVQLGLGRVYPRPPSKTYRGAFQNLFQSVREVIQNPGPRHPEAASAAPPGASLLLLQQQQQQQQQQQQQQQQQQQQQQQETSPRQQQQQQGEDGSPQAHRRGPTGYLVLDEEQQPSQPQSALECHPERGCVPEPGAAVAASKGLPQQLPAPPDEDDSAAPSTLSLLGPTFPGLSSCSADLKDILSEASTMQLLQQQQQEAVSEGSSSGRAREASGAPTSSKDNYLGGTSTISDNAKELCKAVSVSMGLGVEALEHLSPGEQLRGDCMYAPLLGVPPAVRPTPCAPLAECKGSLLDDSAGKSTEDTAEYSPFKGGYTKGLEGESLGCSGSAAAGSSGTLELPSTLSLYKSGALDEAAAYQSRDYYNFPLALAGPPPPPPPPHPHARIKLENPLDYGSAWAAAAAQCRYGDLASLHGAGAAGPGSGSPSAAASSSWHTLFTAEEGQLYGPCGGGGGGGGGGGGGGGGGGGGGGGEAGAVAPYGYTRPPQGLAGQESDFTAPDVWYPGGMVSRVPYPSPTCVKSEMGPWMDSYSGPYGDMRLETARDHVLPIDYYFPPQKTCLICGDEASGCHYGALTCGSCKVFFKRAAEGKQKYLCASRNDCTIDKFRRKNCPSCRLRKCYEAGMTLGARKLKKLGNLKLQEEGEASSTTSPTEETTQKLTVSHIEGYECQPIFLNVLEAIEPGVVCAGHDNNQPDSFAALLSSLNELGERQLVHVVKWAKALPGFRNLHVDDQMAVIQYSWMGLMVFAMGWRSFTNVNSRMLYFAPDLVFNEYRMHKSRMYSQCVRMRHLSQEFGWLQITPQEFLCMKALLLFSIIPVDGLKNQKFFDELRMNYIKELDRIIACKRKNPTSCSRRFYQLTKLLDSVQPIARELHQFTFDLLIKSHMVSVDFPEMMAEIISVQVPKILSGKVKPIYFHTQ

## COc1cc(O)c(Br)c(Cl)c1F [sr7615]
Klebsiella pneumoniae
  Effect level, K. pneumoniae: 2
Androgenic receptors
  inhibition at 10 µM: 3.1%
